Results reported in US7763446B2, “Chimeric DNA-binding proteins” (Massachusetts Institute of Technology, priority 1994, dated 2010).

Assays:
[1] = hGH clearance after bolus administration; format: in vivo; conditions: i.p. or i.v.
Excerpt: Therefore, the observed hGH secretion in this example appears to be a sustained phenomenon.

[2] = test system: ZFHD1-FKBPx3 with FKBPx3-VP16 or FKBPx3-p65, pZHWTx8SVSEAP reporter; experiment: FK1012-dependent SEAP transcriptional activation in 293 cells; format: cell-based; conditions: 24 hour incubation
Procedure: 293 cells were grown in D-MEM (Gibco BRL) supplemented with 10% Bovine Calf Serum. Cells in 35 mm dishes (2.5×10^5 cells/dish) were transiently transfected with use of calcium phosphate precipitation (Ausubel et. al., 1994). Each dish received 375 ng pZHWTx8SVSEAP; 12 ng pCGNNZFHD1-FKBPx3 and 25 ng pCGNNFKBPx3-VP16 or pCGNNFKBPx3-p65. Following transfection, 2 ml fresh media was added and supplemented with FK1012 to the desired concentration. After a 24 hour incubation […] aliquot of media was removed and assayed for SEAP activity as described (Spencer et. al., 1993).

[3] = test system: ZFHD1-FKBPx3 and FRB-p65 fusion proteins, hGH reporter linked to ZFHD1 binding sites; experiment: Rapamycin-dependent hGH expression in transfected HT1080 cell culture; format: cell-based; conditions: HT1080 cells with three constructs
Procedure: Using the approach described in Example 6, constructs were prepared encoding the ZFHD1-FKBPx3 fusion protein, a second fusion protein containing the FKBP:rapaymcin binding (“FRB”) region of FRAP linked to the p65 activation domain, and a reporter cassette containing a gene encoding human growth hormone linked to multiple ZFHD1 binding sites. The natural product, rapamycin, forms a ternary complex with FKBP12 and FRAP. Similarly, rapamycin is capable of binding to one or more of the FKBP domains and FRAP FRB domains of the fusion proteins.

[4] = test system: ZFHD1-FKBPx3 and FRB-p65 fusion proteins, hGH target gene in implanted cells; experiment: Rapamycin-dependent serum hGH in nu/nu mice implanted with transfected HT1080 cells; format: in vivo; conditions: rapamycin i.v. 10-10,000 μg/kg, serum 17 hours after administration
Procedure: Human cells (2×10^6) transfected with plasmids encoding transcription factors ZFHD1-FKBPx3 and FRB-p65 and a target gene directing the expression of human growth hormone (hGH) were injected into the skeletal muscles of nu/nu mice. Mice were treated with the indicated concentration of rapamycin by tail vein injection. After 17 hours, serum hGH levels were determined by ELISA. Each point represents X±SEM (n=at least 5 per point). Control animals received either engineered cells without drug or drug (10^3 or 10^4 μg/kg) without engineered cells.
2×10^6 cells from the transfected HT1080 culture were administered to nu/nu mice by intramuscular injection. Following cell implantation, rapamycin was administered i.v. over a range of doses (from 10-10,000 μg/kg). Serum samples were collected from the mice 17 hours after rapamycin administration. Control groups consisted of mice that received no cells but 1.0 mg/kg rapamycin (i.v.) as well as mice that received the cells but no rapamycin.
Neither control group produced measurable hGH. The limit of detection of the hGH assay is 0.0125 ng/ml.

hGH: human growth hormone, reporter gene product; bolus clearance stated
hGH clearance half-life [1]: less than 2 minutes
time to undetectable hGH levels [1]: ≤ 30 min

CO[C@H]1C[C@@H](C)C/C(C)=C/[C@@H](CCOC(=O)NCc2ccc(CNC(=O)OCC[C@@H]3/C=C(\C)C[C@H](C)C[C@H](OC)C4O[C@@](O)(C(=O)C(=O)N5CCCC[C@H]5C(=O)OC(/C(C)=C/[C@@H]5CC[C@@H](O)[C@H](OC)C5)[C@H](C)[C@@H](O)CC3=O)[C@H](C)C[C@H]4OC)cc2)C(=O)C[C@H](O)[C@@H](C)C(/C(C)=C/[C@@H]2CC[C@@H](O)[C@H](OC)C2)OC(=O)[C@@H]2CCCCN2C(=O)C(=O)[C@]2(O)OC1[C@H](OC)C[C@H]2C (some centres unmarked) [FK1012]
FK1012 concentration at peak activation [2]: 100 nM

rapamycin
rapamycin-dependent expression of the hGH gene in cell culture [3]: rapamycin-dependent expression of the hGH gene
expression of hGH (circulating hGH) [4]: Dose-responsive expression of hGH
